From PubChem BioAssay (NCI)
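Exposure lasted 48 hours, with cells grown in 96-well plates and compounds tested at five concentrations. Definition used: TGI = concentration required for complete inhibition of growth.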

How the values were obtained:
Test in all cases: NCI tumour cell line growth inhibition, 48 h
[1] = test system: HT29 colon
[2] = test system: HL-60(TB) leukemia
[3] = test system: A549 NSCLC
[4] = test system: U251 CNS
[5] = test system: HCT-15 colon
[6] = test system: DU-145 prostate
[7] = test system: SNB-75 CNS
[8] = test system: OVCAR-8 ovarian
[9] = test system: KM12 colon
[10] = test system: SK-MEL-28 melanoma
[11] = test system: K-562 leukemia
[12] = test system: HCT-116 colon
[13] = test system: MDA-MB-231 breast
[14] = test system: SK-MEL-2 melanoma
[15] = test system: SK-OV-3 ovarian
[16] = test system: MOLT-4 leukemia
[17] = test system: MCF7 breast
[18] = test system: NCI-H460 lung
[19] = test system: SNB-19 CNS

Structure (SMILES)	TGI [1]	TGI [2]	TGI [3]	TGI [4]	TGI [5]	TGI [6]	TGI [7]	TGI [8]	TGI [9]	TGI [10]	TGI [11]	TGI [12]	TGI [13]	TGI [14]	TGI [15]	TGI [16]	TGI [17]	TGI [18]	TGI [19]
CCc1nc(N)nc(N)c1-c1ccc(N2CCOCC2)c(N=[N+]=[N-])c1	> 100 µM	> 79.2 µM	> 100 µM	> 100 µM	> 100 µM	> 100 µM	> 100 µM	> 100 µM	> 100 µM	> 100 µM	> 90.6 µM	> 100 µM	> 100 µM	> 100 µM	> 100 µM	> 100 µM	> 100 µM	> 100 µM	> 78.4 µM
CO/C(N)=C(\C#N)N=Cc1ccsc1	> 100 µM	45.9 µM	> 100 µM	> 100 µM	> 100 µM	> 100 µM	> 100 µM	> 100 µM	> 100 µM	> 100 µM	> 100 µM	> 100 µM	> 100 µM	> 100 µM	> 100 µM	> 100 µM	> 100 µM	> 100 µM	> 100 µM
CC1(c2ccc(Cl)cc2)C=C(c2ccc(Cl)cc2)C(C#N)=C(C(C#N)C#N)N1 (stereo not given)	32.8 µM	41.1 µM	42.2 µM	33 µM	30.4 µM	29.6 µM	33.6 µM	30.7 µM	38.6 µM	66.6 µM	> 100 µM	27.3 µM	54.9 µM	47.1 µM	30.8 µM	47 µM	37.3 µM	52.9 µM	37.2 µM
COc1ccc(/C=C2\C[C@H]3[C@@H]4CC=C5C[C@@H](O)CC[C@]5(C)[C@H]4CC[C@]3(C)\C2=N\O)cc1	> 100 µM	24.8 µM	> 100 µM	> 100 µM	> 100 µM	71.5 µM			> 100 µM	72.8 µM	45.9 µM	29.3 µM	> 100 µM	39.8 µM	> 100 µM	34.3 µM	> 100 µM	> 100 µM	> 100 µM
NC1=C(c2nc(-c3ccccc3)cs2)C(c2ccco2)c2c(c3ccccc3oc2=O)O1 (stereo not given)	> 100 µM	> 100 µM	> 100 µM	> 100 µM	> 100 µM	> 100 µM	> 100 µM	> 100 µM		> 100 µM	> 100 µM	> 100 µM	> 100 µM	> 100 µM	> 100 µM		> 100 µM	> 100 µM	> 100 µM
O=C(/C=C/c1ccccc1)CCN1CCCCC1	43.3 µM	> 100 µM	> 100 µM	65.6 µM	> 100 µM	> 100 µM	> 100 µM	38.4 µM	> 100 µM	58.5 µM	> 100 µM	32.1 µM	63.9 µM	> 100 µM	> 100 µM	63.1 µM	89.9 µM	> 100 µM	> 100 µM
COC(=O)c1c(C)cccc1C1CN=NC12Cc1cc(C)c(C)cc1C2=O (stereo not given)	> 100 µM	45.5 µM	> 100 µM	> 100 µM	> 100 µM	> 100 µM	> 100 µM	> 100 µM	> 100 µM	> 100 µM	> 100 µM	> 100 µM	> 100 µM	> 100 µM	> 100 µM	> 100 µM	> 100 µM	> 100 µM	> 100 µM
C#CCN(C(=O)C(F)(F)F)C(/C=C\C(=O)OC)(C(=O)OCC)C(=O)OCC	> 100 µM	> 100 µM	> 100 µM	> 100 µM	> 100 µM	> 100 µM	> 100 µM	> 100 µM	> 100 µM	> 100 µM	> 100 µM		> 100 µM	> 100 µM	> 100 µM	> 100 µM	> 100 µM	> 100 µM	> 100 µM
Cc1nn(C(=O)Cc2ccccc2)c2c1C(c1ccc(/C=C/c3ccccc3)cc1)SC(N)=N2 (stereo not given)	> 100 µM	> 100 µM	> 100 µM		> 100 µM	> 100 µM	> 100 µM	> 100 µM	> 100 µM	> 100 µM	> 100 µM	> 100 µM	> 100 µM		> 100 µM	> 100 µM	> 100 µM	> 100 µM	> 100 µM
O=C1CSC(c2cc3cc(Br)ccc3nc2Cl)N1c1ccc(Cl)cc1 (stereo not given)	> 100 µM	55.7 µM	> 100 µM		88.8 µM	> 100 µM	> 100 µM	> 100 µM	47.6 µM	> 100 µM	> 100 µM	77 µM	> 100 µM	32.2 µM	> 100 µM	47.9 µM	67.6 µM	42.1 µM	> 100 µM
O=C(Nc1ccc(Cl)cc1Cl)C1C(=O)OC2(CCCCC2)OC1=O	25 µM	29.9 µM	28.8 µM	54.1 µM	29.4 µM	28.7 µM	29.2 µM	39.6 µM	28.4 µM	23.5 µM	43.1 µM	23.3 µM	33 µM	12.6 µM	32.2 µM	26.9 µM	29.6 µM	27.4 µM	> 100 µM
Nc1ccc2c(=S)c3ccccc3[nH]c2c1	> 100 µM	> 100 µM	> 100 µM	> 100 µM	> 100 µM	> 100 µM	> 100 µM	> 100 µM	> 100 µM	> 100 µM	> 100 µM	> 100 µM	> 100 µM	> 100 µM	98.5 µM	> 84.4 µM	> 100 µM	> 100 µM	> 100 µM
